In ChEMBL document CHEMBL3621167, “Therapeutic Potential of 5-HT6 Receptor Agonists” (J Med Chem, 2015):

Legend:
Homo sapiens [1] = species: Homo sapiens; assay: Selectivity ratio of Ki for human 5-HT1B receptor to Ki for human 5-HT6 receptor
Homo sapiens [2] = species: Homo sapiens; assay: Selectivity ratio of Ki for human 5-HT1F receptor to Ki for human 5-HT6 receptor
Homo sapiens [3] = species: Homo sapiens; assay: Selectivity ratio of Ki for human 5-HT5A receptor to Ki for human 5-HT6 receptor
Homo sapiens [4] = species: Homo sapiens; assay: Selectivity ratio of Ki for human 5-HT1A receptor to Ki for human 5-HT6 receptor
Homo sapiens [5] = species: Homo sapiens; assay: Selectivity ratio of Ki for human 5-HT1D receptor to Ki for human 5-HT6 receptor
Homo sapiens [6] = species: Homo sapiens; assay: Selectivity ratio of Ki for human 5-HT7 receptor to Ki for human 5-HT6 receptor
[7] = target: 5-hydroxytryptamine receptor 2B (Homo sapiens, UniProt P41595); assay: Binding affinity to 5-HT2B receptor (unknown origin)
[8] = target: 5-hydroxytryptamine receptor 6 (Homo sapiens, UniProt P50406); assay: Agonist activity at 5-HT6 receptor (unknown origin)
[9] = target: T1, Adrenergic receptor alpha-2 (Rattus norvegicus, UniProt P22086+P19328+P22909); assay: Binding affinity to rat alpha2 adrenergic receptor
T1 sequence (P22086 whole entry): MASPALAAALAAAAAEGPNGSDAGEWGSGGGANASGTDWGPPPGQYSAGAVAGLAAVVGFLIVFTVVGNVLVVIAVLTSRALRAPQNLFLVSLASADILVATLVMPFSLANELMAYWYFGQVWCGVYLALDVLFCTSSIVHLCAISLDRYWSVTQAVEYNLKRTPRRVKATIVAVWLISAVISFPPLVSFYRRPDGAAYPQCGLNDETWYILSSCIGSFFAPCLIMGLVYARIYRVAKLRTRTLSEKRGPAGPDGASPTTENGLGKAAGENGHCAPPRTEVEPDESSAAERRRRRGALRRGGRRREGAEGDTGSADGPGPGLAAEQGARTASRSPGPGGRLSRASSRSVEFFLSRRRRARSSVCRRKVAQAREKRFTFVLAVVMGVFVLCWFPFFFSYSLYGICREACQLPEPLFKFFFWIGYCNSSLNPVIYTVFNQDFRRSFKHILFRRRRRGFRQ
T1 sequence (P19328 whole entry): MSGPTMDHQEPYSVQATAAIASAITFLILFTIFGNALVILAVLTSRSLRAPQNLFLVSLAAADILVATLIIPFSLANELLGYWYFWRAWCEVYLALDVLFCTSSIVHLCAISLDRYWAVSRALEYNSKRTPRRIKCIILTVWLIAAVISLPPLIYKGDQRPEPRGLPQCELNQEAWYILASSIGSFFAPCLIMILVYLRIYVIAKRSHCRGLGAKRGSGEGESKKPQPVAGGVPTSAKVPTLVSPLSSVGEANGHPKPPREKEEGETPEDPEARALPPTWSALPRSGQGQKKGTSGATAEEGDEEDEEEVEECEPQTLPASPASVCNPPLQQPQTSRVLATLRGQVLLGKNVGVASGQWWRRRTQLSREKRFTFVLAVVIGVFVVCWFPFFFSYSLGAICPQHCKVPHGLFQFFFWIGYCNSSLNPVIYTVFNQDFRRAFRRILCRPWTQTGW
T1 sequence (P22909 whole entry): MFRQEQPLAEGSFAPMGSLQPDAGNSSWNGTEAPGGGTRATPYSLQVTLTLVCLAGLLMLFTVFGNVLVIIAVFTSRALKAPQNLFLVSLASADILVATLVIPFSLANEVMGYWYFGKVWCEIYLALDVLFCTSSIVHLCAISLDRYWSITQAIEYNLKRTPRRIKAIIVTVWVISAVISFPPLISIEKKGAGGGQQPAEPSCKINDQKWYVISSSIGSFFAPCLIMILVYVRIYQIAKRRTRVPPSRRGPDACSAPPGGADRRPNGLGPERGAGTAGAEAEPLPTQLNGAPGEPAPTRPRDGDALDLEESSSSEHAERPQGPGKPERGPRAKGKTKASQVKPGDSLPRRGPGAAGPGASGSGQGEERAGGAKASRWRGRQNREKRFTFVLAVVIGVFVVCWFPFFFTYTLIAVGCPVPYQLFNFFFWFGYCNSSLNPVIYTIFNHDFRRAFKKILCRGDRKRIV

[10] = target: T2, Adrenergic receptor alpha-1 (Rattus norvegicus, UniProt P15823+P23944+P43140); assay: Binding affinity to rat alpha1 adrenergic receptor
T2 sequence (P15823 whole entry): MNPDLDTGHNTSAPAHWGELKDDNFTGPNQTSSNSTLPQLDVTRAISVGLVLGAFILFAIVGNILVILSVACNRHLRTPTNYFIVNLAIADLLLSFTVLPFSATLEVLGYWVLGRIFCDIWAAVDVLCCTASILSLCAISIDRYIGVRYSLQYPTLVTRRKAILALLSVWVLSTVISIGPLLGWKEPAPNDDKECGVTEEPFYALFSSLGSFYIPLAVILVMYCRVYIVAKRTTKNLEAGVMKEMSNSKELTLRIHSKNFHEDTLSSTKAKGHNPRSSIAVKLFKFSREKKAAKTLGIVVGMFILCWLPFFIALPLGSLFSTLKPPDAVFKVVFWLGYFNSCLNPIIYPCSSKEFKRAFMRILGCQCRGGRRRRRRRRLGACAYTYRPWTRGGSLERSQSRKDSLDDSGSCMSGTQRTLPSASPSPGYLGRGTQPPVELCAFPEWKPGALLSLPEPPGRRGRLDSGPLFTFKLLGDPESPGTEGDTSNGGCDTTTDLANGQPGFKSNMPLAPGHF
T2 sequence (P23944 whole entry): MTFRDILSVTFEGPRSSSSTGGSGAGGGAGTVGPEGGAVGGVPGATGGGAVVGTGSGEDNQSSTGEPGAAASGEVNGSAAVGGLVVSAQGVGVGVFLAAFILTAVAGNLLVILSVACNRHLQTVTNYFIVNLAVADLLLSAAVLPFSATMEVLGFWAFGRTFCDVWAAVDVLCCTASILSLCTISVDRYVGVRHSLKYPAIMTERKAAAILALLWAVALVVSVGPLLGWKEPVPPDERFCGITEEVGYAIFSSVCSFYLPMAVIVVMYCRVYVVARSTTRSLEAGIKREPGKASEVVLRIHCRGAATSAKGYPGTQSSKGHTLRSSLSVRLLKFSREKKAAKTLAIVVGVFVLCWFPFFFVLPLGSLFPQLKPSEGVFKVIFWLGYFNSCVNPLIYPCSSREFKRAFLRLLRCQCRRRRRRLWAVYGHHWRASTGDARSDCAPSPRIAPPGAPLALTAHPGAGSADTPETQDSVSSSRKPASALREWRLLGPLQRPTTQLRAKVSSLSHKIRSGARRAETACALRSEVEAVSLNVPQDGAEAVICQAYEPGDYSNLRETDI
T2 sequence (P43140 whole entry): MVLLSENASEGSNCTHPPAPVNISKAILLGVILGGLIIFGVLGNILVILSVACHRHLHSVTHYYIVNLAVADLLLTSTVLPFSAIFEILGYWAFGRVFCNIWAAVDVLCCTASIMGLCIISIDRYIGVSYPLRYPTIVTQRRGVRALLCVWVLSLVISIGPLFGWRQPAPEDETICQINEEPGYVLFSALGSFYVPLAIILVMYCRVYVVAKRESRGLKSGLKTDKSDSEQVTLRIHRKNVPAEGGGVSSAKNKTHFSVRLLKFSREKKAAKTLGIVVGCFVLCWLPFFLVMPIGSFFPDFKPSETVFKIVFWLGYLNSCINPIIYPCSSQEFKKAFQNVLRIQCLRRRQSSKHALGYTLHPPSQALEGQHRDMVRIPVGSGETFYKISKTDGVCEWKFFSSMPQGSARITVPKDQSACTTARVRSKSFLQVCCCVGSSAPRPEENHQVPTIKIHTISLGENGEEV

[11] = target: 5-hydroxytryptamine receptor 6 (Rattus norvegicus, UniProt P31388); assay: Displacement of [3H] lysergic acid diethylamide from rat 5-HT6 receptor transfected in HEK293 cells after 60 mins by scintillation counter; format: cell-based
[12] = Selectivity ratio of Ki for 5-HT7 receptor (unknown origin) to Ki for rat 5-HT6 receptor
[13] = target: 5-hydroxytryptamine receptor 7 (Homo sapiens, UniProt P34969); assay: Binding affinity to 5-HT7 receptor (unknown origin)
[14] = target: T3, Adrenergic receptor alpha-2 (Homo sapiens, UniProt P08913+P18825+P18089); assay: Binding affinity to human recombinant alpha2 adrenergic receptor; format: protein assay
T3 sequence (P08913 whole entry): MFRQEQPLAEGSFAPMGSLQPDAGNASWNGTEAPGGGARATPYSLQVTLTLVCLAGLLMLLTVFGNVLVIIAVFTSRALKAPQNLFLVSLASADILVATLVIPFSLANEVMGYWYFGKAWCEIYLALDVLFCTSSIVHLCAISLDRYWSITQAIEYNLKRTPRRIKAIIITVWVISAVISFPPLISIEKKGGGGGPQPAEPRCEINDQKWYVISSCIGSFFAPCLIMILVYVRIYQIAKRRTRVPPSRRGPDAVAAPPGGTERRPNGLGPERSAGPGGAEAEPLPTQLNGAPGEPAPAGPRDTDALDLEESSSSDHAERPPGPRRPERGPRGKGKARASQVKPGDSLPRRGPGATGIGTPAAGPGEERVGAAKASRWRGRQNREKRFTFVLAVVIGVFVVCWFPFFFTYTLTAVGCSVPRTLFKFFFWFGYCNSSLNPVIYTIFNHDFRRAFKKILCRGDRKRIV
T3 sequence (P18825 whole entry): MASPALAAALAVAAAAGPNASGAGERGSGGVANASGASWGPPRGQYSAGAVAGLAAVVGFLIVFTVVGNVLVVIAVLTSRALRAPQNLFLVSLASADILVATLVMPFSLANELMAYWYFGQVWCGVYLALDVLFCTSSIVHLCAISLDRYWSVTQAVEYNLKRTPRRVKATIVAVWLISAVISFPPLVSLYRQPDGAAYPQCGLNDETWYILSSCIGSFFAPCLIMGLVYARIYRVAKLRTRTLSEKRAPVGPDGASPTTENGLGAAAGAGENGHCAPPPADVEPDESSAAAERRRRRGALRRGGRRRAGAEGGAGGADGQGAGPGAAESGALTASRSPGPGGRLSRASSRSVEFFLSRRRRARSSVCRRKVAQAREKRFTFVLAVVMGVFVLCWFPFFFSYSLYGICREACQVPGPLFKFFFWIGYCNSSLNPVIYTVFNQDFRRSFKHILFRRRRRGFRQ
T3 sequence (P18089 whole entry): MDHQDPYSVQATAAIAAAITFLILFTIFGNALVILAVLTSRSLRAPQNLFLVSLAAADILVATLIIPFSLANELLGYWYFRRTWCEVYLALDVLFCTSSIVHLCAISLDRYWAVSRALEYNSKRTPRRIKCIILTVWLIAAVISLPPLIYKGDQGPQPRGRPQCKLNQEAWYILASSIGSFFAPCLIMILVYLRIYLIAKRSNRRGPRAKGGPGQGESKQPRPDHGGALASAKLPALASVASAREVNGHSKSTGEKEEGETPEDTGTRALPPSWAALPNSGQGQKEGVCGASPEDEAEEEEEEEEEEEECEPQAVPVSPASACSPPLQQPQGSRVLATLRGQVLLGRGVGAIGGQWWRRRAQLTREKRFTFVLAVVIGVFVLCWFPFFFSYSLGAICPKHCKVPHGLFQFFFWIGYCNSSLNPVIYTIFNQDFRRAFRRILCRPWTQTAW

[15] = Selectivity ratio of Ki for 5-HT2B receptor (unknown origin) to Ki for rat 5-HT6 receptor

Chain of 5-hydroxytryptamine receptor 2B (P41595 whole entry): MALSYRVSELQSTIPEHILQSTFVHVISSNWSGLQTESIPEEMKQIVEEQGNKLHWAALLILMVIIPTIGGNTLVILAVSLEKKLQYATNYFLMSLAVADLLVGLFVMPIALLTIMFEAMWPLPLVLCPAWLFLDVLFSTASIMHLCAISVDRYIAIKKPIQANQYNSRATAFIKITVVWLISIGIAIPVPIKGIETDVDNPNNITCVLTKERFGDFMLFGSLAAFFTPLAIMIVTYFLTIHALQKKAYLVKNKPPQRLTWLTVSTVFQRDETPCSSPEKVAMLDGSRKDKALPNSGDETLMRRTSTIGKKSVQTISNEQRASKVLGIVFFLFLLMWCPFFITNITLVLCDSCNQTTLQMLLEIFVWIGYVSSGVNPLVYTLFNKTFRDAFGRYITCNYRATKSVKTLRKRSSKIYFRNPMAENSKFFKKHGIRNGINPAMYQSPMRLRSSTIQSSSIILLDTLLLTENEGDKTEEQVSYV
Chain of 5-hydroxytryptamine receptor 6 (Rattus norvegicus, UniProt P31388) (P31388 whole entry): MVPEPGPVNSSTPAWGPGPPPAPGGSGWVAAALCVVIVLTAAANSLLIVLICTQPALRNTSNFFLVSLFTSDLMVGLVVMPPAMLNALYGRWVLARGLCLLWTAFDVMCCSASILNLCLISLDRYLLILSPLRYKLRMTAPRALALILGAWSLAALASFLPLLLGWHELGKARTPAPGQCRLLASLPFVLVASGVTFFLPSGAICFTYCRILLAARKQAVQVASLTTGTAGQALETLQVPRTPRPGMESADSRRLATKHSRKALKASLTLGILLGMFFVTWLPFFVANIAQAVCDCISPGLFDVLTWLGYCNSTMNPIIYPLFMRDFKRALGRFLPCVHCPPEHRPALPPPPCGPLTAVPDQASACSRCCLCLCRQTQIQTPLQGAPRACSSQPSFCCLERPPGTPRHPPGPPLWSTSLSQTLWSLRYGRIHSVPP
Chain of 5-hydroxytryptamine receptor 7 (P34969 whole entry): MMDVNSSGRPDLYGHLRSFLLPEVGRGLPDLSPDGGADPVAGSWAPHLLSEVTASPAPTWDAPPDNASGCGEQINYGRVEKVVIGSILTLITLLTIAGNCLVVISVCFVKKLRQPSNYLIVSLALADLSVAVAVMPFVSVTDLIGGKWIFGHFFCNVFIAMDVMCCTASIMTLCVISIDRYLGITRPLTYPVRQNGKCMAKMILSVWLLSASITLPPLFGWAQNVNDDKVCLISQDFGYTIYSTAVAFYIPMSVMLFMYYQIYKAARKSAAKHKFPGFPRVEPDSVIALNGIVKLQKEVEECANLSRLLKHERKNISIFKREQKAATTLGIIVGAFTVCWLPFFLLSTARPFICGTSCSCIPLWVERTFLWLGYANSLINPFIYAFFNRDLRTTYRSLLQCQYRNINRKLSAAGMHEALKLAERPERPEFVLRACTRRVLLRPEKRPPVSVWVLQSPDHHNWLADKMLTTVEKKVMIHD
Chain of 5-hydroxytryptamine receptor 6 (Homo sapiens, UniProt P50406) (P50406 whole entry): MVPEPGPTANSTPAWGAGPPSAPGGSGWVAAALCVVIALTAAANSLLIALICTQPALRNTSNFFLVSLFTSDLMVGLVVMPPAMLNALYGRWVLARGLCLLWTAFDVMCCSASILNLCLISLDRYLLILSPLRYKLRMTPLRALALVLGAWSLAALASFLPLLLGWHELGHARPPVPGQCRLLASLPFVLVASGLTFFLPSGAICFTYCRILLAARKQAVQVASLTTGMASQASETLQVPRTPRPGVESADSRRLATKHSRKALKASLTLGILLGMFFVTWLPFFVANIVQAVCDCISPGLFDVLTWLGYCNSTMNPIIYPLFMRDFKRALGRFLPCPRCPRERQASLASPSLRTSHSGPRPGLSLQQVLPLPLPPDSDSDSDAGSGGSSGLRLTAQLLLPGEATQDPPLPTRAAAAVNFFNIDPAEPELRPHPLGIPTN

Structure (SMILES) | Ratio Ki (Homo sapiens [1]) | Ratio Ki (Homo sapiens [2]) | Ratio Ki (Homo sapiens [3]) | Ratio Ki (Homo sapiens [4]) | Ratio Ki (Homo sapiens [5]) | Ratio Ki (Homo sapiens [6]) | Ki [7] | EC50 [8] | Ki [9] | Ki [10] | Ki [11] | Ratio Ki [12] | Ki [13] | Ki [14] | Ratio Ki [15]
CN(C)CCc1cn(S(=O)(=O)c2ccccc2)c2ccccc12 | > 100 | > 100 | > 100 | > 100 | > 100 | > 100 | – | – | – | – | – | – | – | – | –
Cc1[nH]c2ccc(Cl)cc2c1CCN(C)C | – | – | – | – | – | – | 0.245 µM | 0.0448 µM | 0.3 µM | 0.3 µM | 0.0288 µM | 10 | 0.29 µM | 0.3 µM | 8
